The text below walks through data of patent US12187709B2 (Genentech, Inc., priority 2021, dated 2025).

Assay [1] concerns the target Cbl-b (Homo sapiens (Human), UniProt Q13191). Kind of assay: Cbl-b LCK Ub TR-FRET assay (Cbl-b Lck HTRF). The format is biochemical. The note with it: for IC50: Cbl-b LCK Ub TR-FRET; for fold-selectivity (Cbl-b over C-cbl): ratio C-cbl Lck HTRF IC50 / Cbl-b Lck HTRF IC50. The gist of the method:
(§1)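 Detection reagents added, brief spin, 20 min RT. IC50 fit normalized to no-LCK (low) and DMSO (high) controls.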
A general note: Time-resolved FRET reads energy transfer from a long-lived donor to a nearby acceptor.

The target in assay [2] is c-Cbl (Homo sapiens (Human), UniProt P22681). The assay is described as follows: C-Cbl LCK Ub TR-FRET assay (C-cbl Lck HTRF). The format is biochemical. The essentials: as §1
Assay [3] concerns the target Human Cbl-b (residues 40-426) (Homo sapiens (Human), UniProt Q13191). Kind of assay: Cbl-b SPR assay. Particulars: for Fold of selectivity: C-cbl SPR Kd vs Cbl-b SPR Kd; for Kd: SPR, 20° C. The format is binding. The essentials:
(§2)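 SPR, multi-cycle, 6-pt 2-fold series, blanks flanking for double referencing; capture 1300-1500 RU; contact 60 s at 40 μl/min; dissoc. 120-1200 s (~4-5 half-lives). 1:1 fit. Chaser variant: single cycle, 5 conc., top 500 nM, 120 s contact, 450 s dissociation.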
(Surface plasmon resonance follows binding to a sensor surface in real time, without labels.)

Assay [4] addresses c-Cbl (residues 47-435) (Homo sapiens (Human), UniProt P22681). The assay is described as follows: c-Cbl SPR assay. The format is binding. Particulars: 20° C. The essentials:
as §2

Chain of Cbl-b (Q13191 40-426): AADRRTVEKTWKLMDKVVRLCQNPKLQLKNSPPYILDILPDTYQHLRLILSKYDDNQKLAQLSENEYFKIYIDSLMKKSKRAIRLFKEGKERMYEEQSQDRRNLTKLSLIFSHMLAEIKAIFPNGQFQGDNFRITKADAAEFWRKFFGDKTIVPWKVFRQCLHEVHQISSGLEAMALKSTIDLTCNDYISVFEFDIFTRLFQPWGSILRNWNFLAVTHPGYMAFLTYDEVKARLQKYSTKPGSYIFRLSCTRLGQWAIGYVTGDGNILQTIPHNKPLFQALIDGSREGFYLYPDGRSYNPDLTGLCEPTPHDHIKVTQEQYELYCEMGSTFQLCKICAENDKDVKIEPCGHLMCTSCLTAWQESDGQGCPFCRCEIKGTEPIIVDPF
Chain of Human Cbl-b (residues 40-426) (Q13191 40-426): as above
Chain of c-Cbl (residues 47-435) (P22681 47-435): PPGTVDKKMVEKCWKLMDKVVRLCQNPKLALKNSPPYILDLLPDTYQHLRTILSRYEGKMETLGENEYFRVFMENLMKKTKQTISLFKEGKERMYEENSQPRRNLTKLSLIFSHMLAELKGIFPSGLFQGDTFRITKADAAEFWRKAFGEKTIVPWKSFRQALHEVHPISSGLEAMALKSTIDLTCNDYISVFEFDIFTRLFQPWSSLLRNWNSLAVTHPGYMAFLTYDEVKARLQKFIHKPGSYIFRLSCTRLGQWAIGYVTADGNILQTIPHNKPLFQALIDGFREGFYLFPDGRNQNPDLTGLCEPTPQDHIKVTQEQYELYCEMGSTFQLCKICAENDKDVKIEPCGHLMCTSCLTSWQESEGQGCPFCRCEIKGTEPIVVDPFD
Chain of c-Cbl (P22681 47-435): as above

With `Cn1cnnc1C1(c2cccc(N3Cc4c(cc(CNC5(C)CCC5)cc4C(F)(F)F)C3=O)c2)CS(=O)(=O)C1` [Compound 328, 2-(3-(3-(4-methyl-4H-1,2,4-triazol-3-yl)-1,1-dioxidothietan-3-yl)phenyl)-6-(((1-methylcyclobutyl)amino)methyl)-4-(trifluoromethyl)isoindolin-1-one], the results for the IC50 in assay [1] and in assay [2] were 100 nM and 380 nM, respectively. Further, in assay [1], the “fold-selectivity (Cbl-b over C-cbl)” value is reported as 3.8x. In addition, in assay [3], the Fold of selectivity was found to be 4.8×. For the same compound, the results for the Kd in assay [3] and in assay [4] were 67 nM and 320 nM, respectively.
For `Cn1cnnc1C1(c2cccc(N3Cc4c(cc(CNC5(C)CCC5)cc4C(F)(F)F)C3=O)c2)CSC1.O=CO` [Compound 329, 2-(3-(3-(4-methyl-4H-1,2,4-triazol-3-yl)thietan-3-yl)phenyl)-6-(((1-methylcyclobutyl)amino)methyl)-4-(trifluoromethyl)isoindolin-1-one formate], in assay [1], 11 nM corresponded to half-maximal inhibition (IC50) and the “fold-selectivity (Cbl-b over C-cbl)” value came to 1.8x. In addition, the IC50 (commonly the midpoint of a concentration-inhibition curve) in assay [2] amounted to 19 nM. Also, in assay [3], the Fold of selectivity came to 5.7× and the Kd (in general, the equilibrium constant for the complex coming apart) was found to be 3.2 nM. The compound further returned a Kd in assay [4] of 19 nM.
As to `Cn1cnnc1[C@]1(c2cccc(N3Cc4c(cc(CNC5(C)CCC5)cc4C(F)(F)F)C3=O)c2)C[S@+]([O-])C1` [Compound 330, 2-(3-((1s,3s)-3-(4-methyl-4H-1,2,4-triazol-3-yl)-1-oxidothietan-3-yl)phenyl)-6-(((1-methylcyclobutyl)amino)methyl)-4-(trifluoromethyl)isoindolin-1-one], in assay [1], the IC50 came out at 200 nM and the “fold-selectivity (Cbl-b over C-cbl)” value was 1.9x. Moreover, the IC50 in assay [2] was 390 nM. In assay [3], the Fold of selectivity is 11× and the affinity, expressed as Kd, was 110 nM. In assay [4], this compound came in with an equilibrium dissociation constant (Kd) of 1200 nM.
For `Cn1cnnc1C1(c2cccc(N3Cc4c(cc(CNC5(C)CCC5)cc4C(F)(F)F)C3=O)c2)C[S+]([O-])C1` (stereo not drawn) [Compound 331, 2-(3-((1r,3r)-3-(4-methyl-4H-1,2,4-triazol-3-yl)-1-oxidothietan-3-yl)phenyl)-6-(((1-methylcyclobutyl)amino)methyl)-4-(trifluoromethyl)isoindolin-1-one], the results for the IC50 in assay [1] and in assay [2] were 29 nM and 110 nM, respectively. In addition, the “fold-selectivity (Cbl-b over C-cbl)” value in assay [1] was determined as 3.8x. Moreover, in assay [3], the Fold of selectivity is on record as 8×. Further, the Kd in assay [3] was determined as 15 nM; in assay [4] it was 120 nM.
Consider `Cn1cnnc1[C@]1(c2cccc(N3Cc4c(cc(CNC5(C)CCC5)cc4C(F)(F)F)C3=O)c2)C[C@@H](OC(F)F)C1` [Compound 334, 2-(3-((1r,3r)-3-(difluoromethoxy)-1-(4-methyl-4H-1,2,4-triazol-3-yl)cyclobutyl)phenyl)-6-(((1-methylcyclobutyl)amino)methyl)-4-(trifluoromethyl)isoindolin-1-one], for which, in assay [1], the IC50 worked out at 5.9 nM and the “fold-selectivity (Cbl-b over C-cbl)” value stood at 2.5x. This compound registered an IC50 in assay [2] of 14 nM. In assay [3], this compound came in with a Fold of selectivity of 26× and a Kd of 0.85 nM. The compound also registered a Kd in assay [4] of 22 nM.
Regarding `Cn1cnnc1[C@]1(c2cccc(N3Cc4c(cc(CNC5(C)CCC5)cc4C(F)(F)F)C3=O)c2)C[C@H](OC(F)F)C1` [Compound 335, 2-(3-((1s,3s)-3-(difluoromethoxy)-1-(4-methyl-4H-1,2,4-triazol-3-yl)cyclobutyl)phenyl)-6-(((1-methylcyclobutyl)amino)methyl)-4-(trifluoromethyl)isoindolin-1-one], in assay [1], it took 8.8 nM to reach half-maximal inhibition (IC50) and the “fold-selectivity (Cbl-b over C-cbl)” value is 3.0x. The compound further displayed an IC50 in assay [2] of 26 nM. Also, in assay [3], the Fold of selectivity was found to be 17× and the Kd came out at 2.6 nM. The same compound came in with a Kd in assay [4] of 45 nM.
For `CCNc1cc([C@]2(c3nncn3C)C[C@H](C)C2)cc(N2Cc3c(cc(CNC4(C)CCC4)cc3C(F)(F)F)C2=O)c1F` [Compound 336, 2-(3-(ethylamino)-2-fluoro-5-((1r,3r)-3-methyl-1-(4-methyl-4H-1,2,4-triazol-3-yl)cyclobutyl)phenyl)-6-(((1-methylcyclobutyl)amino)methyl)-4-(trifluoromethyl)isoindolin-1-one], in assay [1], the midpoint of inhibition, the IC50, lay at 7.4 nM and the “fold-selectivity (Cbl-b over C-cbl)” value worked out at 1.2x. In assay [2], the IC50 worked out at 9.1 nM. Further, in assay [3], the Fold of selectivity amounted to 4.1× and the Kd turned out to be 3.2 nM. The compound also gave a Kd in assay [4] of 13 nM.
As to `CCNc1cc([C@]2(c3nncn3C)C[C@@H](C)C2)cc(N2Cc3c(cc(CNC4(C)CCC4)cc3C(F)(F)F)C2=O)c1F` [Compound 337, 2-(3-(ethylamino)-2-fluoro-5-((1s,3s)-3-methyl-1-(4-methyl-4H-1,2,4-triazol-3-yl)cyclobutyl)phenyl)-6-(((1-methylcyclobutyl)amino)methyl)-4-(trifluoromethyl)isoindolin-1-one], the IC50 in assay [1] was determined as 6.2 nM; in assay [2] it was 7.8 nM. For the same compound, the “fold-selectivity (Cbl-b over C-cbl)” value in assay [1] is recorded as 1.2x. In addition, the Fold of selectivity in assay [3] was 3.4×. The Kd in assay [3] is 1.9 nM; in assay [4] it was 6.5 nM.
Consider `Cn1cnnc1[C@]1(c2cccc(N3Cc4c(cc(CNC5(C)CCC5)cc4C(F)(F)F)C3=O)c2)C[C@]2(CCCO2)C1` [Compound 340, 2-(3-((2s, 4r)-2-(4-methyl-4H-1,2,4-triazol-3-yl)-5-oxaspiro[3.4]octan-2-yl)phenyl)-6-(((1-methylcyclobutyl)amino)methyl)-4-(trifluoromethyl) isoindolin-1-one], for which, in assay [1], half-maximal inhibition (IC50) was put at 110 nM and the “fold-selectivity (Cbl-b over C-cbl)” value was found to be 10x. Moreover, it took 1100 nM to reach half-maximal inhibition in assay [2] (IC50). In assay [3], this compound yielded a Fold of selectivity of 24× and a Kd of 82 nM. Moreover, binding in assay [4] was put at a Kd of 1900 nM.
Take `Cn1cnnc1[C@]1(c2cccc(N3Cc4c(cc(CNC5(C)CCC5)cc4C(F)(F)F)C3=O)c2)C[C@@]2(CCCO2)C1` [Compound 341, 2-(3-((2r, 4s)-2-(4-methyl-4H-1,2,4-triazol-3-yl)-5-oxaspiro [3.4]octan-2-yl)phenyl)-6-(((1-methylcyclobutyl)amino)methyl)-4-(trifluoromethyl) isoindolin-1-one]: in assay [1], the IC50 stood at 13 nM and the “fold-selectivity (Cbl-b over C-cbl)” value is recorded as 8.4x. The same compound gave an IC50 in assay [2] of 100 nM. Also, in assay [3], the Fold of selectivity was determined as 11× and the Kd worked out at 11 nM. For the same compound, the Kd in assay [4] was 120 nM.
Consider `CC(=O)[C@H]1C[C@@](c2cccc(N3Cc4c(cc(CNC5(C)CCC5)cc4C(F)(F)F)C3=O)c2)(c2nncn2C)C1` [Compound 346, 2-(3-((1s,3s)-3-acetyl-1-(4-methyl-4H-1,2,4-triazol-3-yl)cyclobutyl)phenyl)-6-(((1-methylcyclobutyl)amino)methyl)-4-(trifluoromethyl)isoindolin-1-one], for which the IC50 in assay [1] turned out to be 40 nM; in assay [2], 190 nM. Besides, the “fold-selectivity (Cbl-b over C-cbl)” value in assay [1] stood at 4.6x. This compound showed a Fold of selectivity in assay [3] of 5.4×. Further, the Kd in assay [3] was determined as 35 nM; in assay [4], 200 nM.
`CC(=O)[C@H]1C[C@](c2cccc(N3Cc4c(cc(CNC5(C)CCC5)cc4C(F)(F)F)C3=O)c2)(c2nncn2C)C1` [Compound 347, 2-(3-((1r,3r)-3-acetyl-1-(4-methyl-4H-1,2,4-triazol-3-yl)cyclobutyl)phenyl)-6-(((1-methylcyclobutyl)amino)methyl)-4-(trifluoromethyl)isoindolin-1-one]: the IC50 in assay [1] is 10 nM; in assay [2], 30 nM. Moreover, the “fold-selectivity (Cbl-b over C-cbl)” value in assay [1] was 3x. Moreover, the Fold of selectivity in assay [3] turned out to be 11×. Further, the Kd in assay [3] was found to be 3 nM; in assay [4], 33 nM.
Consider `Cn1cnnc1[C@]1(c2cccc(N3Cc4c(cc(CNC5(C)CCC5)cc4C(F)(F)F)C3=O)c2)C[C@H](OCF)C1` [Compound 370, 2-(3-((1s,3s)-3-(fluoromethoxy)-1-(4-methyl-4H-1,2,4-triazol-3-yl)cyclobutyl)phenyl)-6-(((1-methylcyclobutyl)amino)methyl)-4-(trifluoromethyl)isoindolin-1-one], for which, in assay [1], inhibition was half-maximal at 13 nM (IC50) and the “fold-selectivity (Cbl-b over C-cbl)” value turned out to be 3.2x. The IC50 in assay [2] stood at 42 nM. Besides, in assay [3], the Fold of selectivity is on record as 9× and binding was characterised by a dissociation constant (Kd) of 4.2 nM. Also, the Kd in assay [4] came out at 39 nM.
For `Cn1cnnc1[C@]1(c2cccc(N3Cc4c(cc(CNC5(C)CCC5)cc4C(F)(F)F)C3=O)c2)C[C@@H](OCF)C1` [Compound 371, 2-(3-((1r,3r)-3-(fluoromethoxy)-1-(4-methyl-4H-1,2,4-triazol-3-yl)cyclobutyl)phenyl)-6-(((1-methylcyclobutyl)amino)methyl)-4-(trifluoromethyl)isoindolin-1-one], in assay [1], the IC50 was determined as 8.3 nM and the “fold-selectivity (Cbl-b over C-cbl)” value came out at 5.0x. Half-maximal inhibition in assay [2] (IC50) was put at 42 nM. Also, in assay [3], the Fold of selectivity was 7.8× and the affinity, expressed as Kd, was 48 nM. The Kd in assay [4] stood at 380 nM.
`CC[C@H]1C[C@@](c2cccc(N3Cc4c(Cl)cc(CNC5(C)CCC5)cc4C3=O)c2)(c2nncn2C)C1` [Compound 374, 4-chloro-2-(3-((1r,3s)-3-ethyl-1-(4-methyl-4H-1,2,4-triazol-3-yl)cyclobutyl)phenyl)-6-(((1-methylcyclobutyl)amino)methyl)isoindolin-1-one]: the IC50 in assay [1] is 6.6 nM; in assay [2] it was 14 nM. Moreover, the “fold-selectivity (Cbl-b over C-cbl)” value in assay [1] is recorded as 2.0x. Moreover, the Fold of selectivity in assay [3] turned out to be 11×. The Kd in assay [3] was 0.95 nM; in assay [4] it was 10 nM.
